Source: patent publication US9701680B2, “Pyrimidine and pyridine compounds and their usage” (HUTCHISON MEDIPHARMA LIMITED, priority 2013, dated 2017)
Where two headings read alike, the source gives them in different places.

How the values were obtained:
[1] = target: FGFR3 kinase (Homo sapiens, UniProt P22607); assay: Z-Lyte Kinase Assay of FGFR3; format: biochemical
How it was run: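 Z-LYTE FRET assay, kinase 0.7 μg/ml with Tyr 4 peptide 4 μM (P/K solution), ATP diluted to 300 uM in 1.33× buffer; compound final 1 to 0.00046 μM, 2% DMSO.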

[2] = tested on: RT-112; assay: Cellular Proliferation Assay (Cell Counting Kit-8), RT-112; format: cell-based; conditions: Homo sapiens; RT-112 cells, 72 hours
How it was run: (§1)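 Seeding per well: KG-1 30000, SNU-16 5000, RT-112 1000 cells. After 24 h an 8-point series (working dilutions 10 to 0.004 μM in 5% DMSO) was added for 72 h at 37 °C, 5% CO2. CCK-8 OD450 after 1 h, corrected for media background and normalised to untreated cells, gave IC50.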

[3] = tested on: KG-1; assay: Cellular Proliferation Assay (Cell Counting Kit-8), KG-1; format: cell-based; conditions: Homo sapiens; KG-1 cells, 72 hours; read-out: KG1 IC50
How it was run: as §1

[4] = tested on: SNU-16; assay: Cellular Proliferation Assay (Cell Counting Kit-8), SNU-16; format: cell-based; conditions: Homo sapiens; SNU-16 cells, 72 hours
How it was run: as §1

[5] = target: Recombinant human FGFR1 (Homo sapiens, UniProt P11362); assay: Transcreener Kinase Assay of FGFR1; format: biochemical
Recombinant human FGFR1, sequence (P11362 22-822): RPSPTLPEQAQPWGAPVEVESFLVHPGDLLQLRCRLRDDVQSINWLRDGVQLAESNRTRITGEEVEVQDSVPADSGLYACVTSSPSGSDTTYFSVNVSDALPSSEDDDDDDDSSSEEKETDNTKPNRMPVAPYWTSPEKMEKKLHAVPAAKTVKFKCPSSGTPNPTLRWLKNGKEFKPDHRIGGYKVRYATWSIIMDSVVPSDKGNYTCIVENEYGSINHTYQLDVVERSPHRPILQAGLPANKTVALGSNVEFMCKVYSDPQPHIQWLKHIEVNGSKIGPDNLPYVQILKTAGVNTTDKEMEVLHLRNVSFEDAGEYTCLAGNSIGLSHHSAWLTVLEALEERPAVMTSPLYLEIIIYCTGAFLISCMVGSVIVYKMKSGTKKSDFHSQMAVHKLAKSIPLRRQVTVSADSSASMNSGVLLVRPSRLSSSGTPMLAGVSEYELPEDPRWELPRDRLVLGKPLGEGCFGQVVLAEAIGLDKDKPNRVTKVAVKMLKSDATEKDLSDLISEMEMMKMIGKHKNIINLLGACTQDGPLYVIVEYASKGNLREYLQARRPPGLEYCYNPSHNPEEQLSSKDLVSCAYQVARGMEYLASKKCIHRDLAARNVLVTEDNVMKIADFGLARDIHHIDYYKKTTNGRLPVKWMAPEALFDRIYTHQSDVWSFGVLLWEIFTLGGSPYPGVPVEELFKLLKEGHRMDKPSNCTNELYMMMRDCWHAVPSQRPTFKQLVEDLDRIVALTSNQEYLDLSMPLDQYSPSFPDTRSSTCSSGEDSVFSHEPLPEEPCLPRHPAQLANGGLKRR
How it was run: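 Recombinant human FGFR1 was reacted with Poly E4Y substrate and ATP for 45 min at 28 °C, with compounds at 1 to 0.0005 µM in 1% DMSO final. Inhibition is relative to the DMSO control, with IC50 from a curve fit.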

[6] = target: Recombinant human FGFR2 (Homo sapiens, UniProt P21802); assay: Transcreener Kinase Assay of FGFR2; format: biochemical
Recombinant human FGFR2, sequence (P21802 22-821): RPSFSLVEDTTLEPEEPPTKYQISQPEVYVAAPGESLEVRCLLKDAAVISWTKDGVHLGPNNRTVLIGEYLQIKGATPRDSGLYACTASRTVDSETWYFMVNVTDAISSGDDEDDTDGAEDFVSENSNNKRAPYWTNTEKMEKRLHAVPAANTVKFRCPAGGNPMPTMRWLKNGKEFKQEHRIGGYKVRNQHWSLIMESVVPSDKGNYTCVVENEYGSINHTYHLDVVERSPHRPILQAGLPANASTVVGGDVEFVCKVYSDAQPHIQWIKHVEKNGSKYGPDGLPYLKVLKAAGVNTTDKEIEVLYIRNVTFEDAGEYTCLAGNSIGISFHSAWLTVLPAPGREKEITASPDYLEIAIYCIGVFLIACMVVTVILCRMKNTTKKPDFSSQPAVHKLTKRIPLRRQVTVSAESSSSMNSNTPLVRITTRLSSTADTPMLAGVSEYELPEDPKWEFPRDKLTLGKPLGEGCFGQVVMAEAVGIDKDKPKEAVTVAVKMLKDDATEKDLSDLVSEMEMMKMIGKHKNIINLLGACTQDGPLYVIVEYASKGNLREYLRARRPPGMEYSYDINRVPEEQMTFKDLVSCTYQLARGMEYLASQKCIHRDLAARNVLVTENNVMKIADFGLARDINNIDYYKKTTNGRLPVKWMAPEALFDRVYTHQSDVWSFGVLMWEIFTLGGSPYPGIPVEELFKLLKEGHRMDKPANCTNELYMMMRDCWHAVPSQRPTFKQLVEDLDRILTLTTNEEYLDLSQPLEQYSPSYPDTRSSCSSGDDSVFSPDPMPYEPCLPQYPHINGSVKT

FGFR3 kinase, sequence (P22607 23-806): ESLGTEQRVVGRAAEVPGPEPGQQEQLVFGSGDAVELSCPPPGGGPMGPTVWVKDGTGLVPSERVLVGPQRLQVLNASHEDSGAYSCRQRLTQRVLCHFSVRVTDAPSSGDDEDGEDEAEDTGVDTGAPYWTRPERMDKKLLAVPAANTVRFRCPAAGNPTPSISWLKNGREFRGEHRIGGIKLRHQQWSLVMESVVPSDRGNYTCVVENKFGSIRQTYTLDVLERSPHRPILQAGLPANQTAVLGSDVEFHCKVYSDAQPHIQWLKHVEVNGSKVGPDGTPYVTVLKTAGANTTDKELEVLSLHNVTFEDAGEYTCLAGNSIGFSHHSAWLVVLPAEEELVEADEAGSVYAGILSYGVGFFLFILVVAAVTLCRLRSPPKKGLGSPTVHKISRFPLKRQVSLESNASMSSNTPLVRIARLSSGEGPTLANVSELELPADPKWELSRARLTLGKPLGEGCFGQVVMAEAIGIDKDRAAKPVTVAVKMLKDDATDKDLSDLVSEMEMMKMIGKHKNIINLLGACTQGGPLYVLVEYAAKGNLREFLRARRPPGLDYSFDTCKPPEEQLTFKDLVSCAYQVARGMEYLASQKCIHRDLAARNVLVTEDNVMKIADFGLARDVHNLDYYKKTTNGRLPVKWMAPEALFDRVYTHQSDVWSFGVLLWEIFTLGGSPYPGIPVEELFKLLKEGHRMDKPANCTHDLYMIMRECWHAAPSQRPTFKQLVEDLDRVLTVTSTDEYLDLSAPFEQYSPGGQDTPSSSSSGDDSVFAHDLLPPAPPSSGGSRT

CNC(=O)c1cc(COc2cnc(Nc3ccnc(N4C[C@@H](C)N[C@@H](C)C4)c3)nc2)c(F)c(OC)c1 [Compound 259]
IC50 [1]: 13 nM
IC50 [2]: 141 nM
IC50 [3]: 220 nM
IC50 [4]: 39 nM
IC50 ([5]; read-out: FGFR1 (FP) IC50): 24 nM
IC50 ([6]; read-out: FGFR2 (FP) IC50): 14 nM

CNC(=O)c1cc(CCc2cnc(Nc3ccc(N4C[C@@H](C)N[C@@H](C)C4)c(OC)c3)nc2)c(F)c(OC)c1 [Compound 156]
IC50 [1]: 6 nM
IC50 [2]: 13 nM
IC50 [3]: 218 nM
IC50 [4]: 9 nM
IC50 ([5]; read-out: FGFR1 (FP) IC50): 14 nM
IC50 ([6]; read-out: FGFR2 (FP) IC50): 6 nM

CNC(=O)c1cc(CCc2cnc(Nc3ccc(N4CCN(C)CC4)c(OC)c3)nc2)c(F)c(OC)c1 [Compound 172]
IC50 [1]: 6 nM
IC50 [2]: 12 nM
IC50 [3]: 13 nM
IC50 [4]: 4 nM
IC50 ([5]; read-out: FGFR1 (FP) IC50): 7 nM
IC50 ([6]; read-out: FGFR2 (FP) IC50): 6 nM

CCN(CC)CCNC(C)c1ccc(Nc2ncc(OCc3cc(C(=O)NC)cc(OC)c3Cl)cn2)cc1 (stereo not drawn) [Compound 295]
IC50 ([1]; Z-lyte): 19 nM
IC50 [2]: 337 nM
IC50 [3]: 40 nM
IC50 [4]: 104 nM
IC50 ([5]; FP): 13 nM
IC50 ([6]; FP): 13 nM

CNC(=O)c1cc(CCc2cnc(Nc3ccc(C(C)(C)C#N)nc3)nc2)c(F)c(OC)c1 [Compound 142]
IC50 [1]: 49 nM
IC50 [2]: 127 nM
IC50 [3]: 64 nM
IC50 [4]: 43 nM
IC50 ([5]; read-out: FGFR1 (FP) IC50): 31 nM
IC50 ([6]; read-out: FGFR2 (FP) IC50): 12 nM

CCN1CCC(c2ccc(Nc3ncc(OCc4cc(C(=O)NC)cc(OC)c4F)cn3)cc2)CC1 [Compound 252]
IC50 [1]: 16 nM
IC50 [2]: 6 nM
IC50 [3]: 28 nM
IC50 [4]: 8 nM
IC50 ([5]; read-out: FGFR1 (FP) IC50): 21 nM
IC50 ([6]; read-out: FGFR2 (FP) IC50): 22 nM

CNC(=O)c1cc(COc2cnc(Nc3ccc(O[C@@H]4O[C@H](CO)[C@@H](O)[C@H](O)[C@H]4O)cc3)nc2)c(Cl)c(OC)c1 [Compound 303]
IC50 ([1]; Z-lyte): 7 nM
IC50 [2]: 64 nM
IC50 [3]: 40 nM
IC50 [4]: 23 nM
IC50 ([5]; FP): 11 nM
IC50 ([6]; FP): 7 nM

CNC(=O)c1cc(COc2cnc(Nc3ccc(C(C)=O)cc3)nc2)c(F)c(OC)c1 [Compound 215]
IC50 [1]: 65 nM
IC50 [2]: 127 nM
IC50 [3]: 26 nM
IC50 [4]: 72 nM
IC50 ([5]; read-out: FGFR1 (FP) IC50): 44 nM
IC50 ([6]; read-out: FGFR2 (FP) IC50): 20 nM

C#Cc1cccc(Nc2ncc(OCc3cc(C(=O)NC)cc(OC)c3F)cn2)c1 [Compound 210]
IC50 [1]: 177 nM
IC50 [2]: 305 nM
IC50 [3]: 166 nM
IC50 [4]: 115 nM
IC50 ([5]; read-out: FGFR1 (FP) IC50): 24 nM
IC50 ([6]; read-out: FGFR2 (FP) IC50): 13 nM

CNC(=O)c1cc(OC)c(Cl)c(COc2cnc(Nc3ccc(N4C[C@@H](C)N[C@@H](C)C4)c(F)c3)nc2)c1F [Compound 299]
IC50 ([1]; Z-lyte): 8 nM
IC50 [2]: 15 nM
IC50 [3]: 7 nM
IC50 [4]: 11 nM
IC50 ([5]; FP): 6 nM
IC50 ([6]; FP): 6 nM

C#Cc1ccc(Nc2ncc(OCc3cc(C(=O)NC)cc(OC)c3F)cn2)cn1 [Compound 211]
IC50 [1]: 42 nM
IC50 [2]: 78 nM
IC50 [3]: 103 nM
IC50 [4]: 155 nM
IC50 ([5]; read-out: FGFR1 (FP) IC50): 40 nM
IC50 ([6]; read-out: FGFR2 (FP) IC50): 16 nM

CNC(=O)c1cc(COc2cnc(Nc3ccc(N4C[C@@H](C)N[C@@H](C)C4)c(OC)c3)nc2)c(F)c(OC)c1 [Compound 282]
IC50 ([1]; Z-lyte): 7 nM
IC50 [2]: 5 nM
IC50 [3]: 46 nM
IC50 [4]: 5 nM
IC50 ([5]; FP): 18 nM
IC50 ([6]; FP): 9 nM

CNC(=O)c1cc(CCc2cnc(Nc3ccc(N4CCN(C)CC4)c(OC)c3)nc2)c(Cl)c(OC)c1 [Compound 177]
IC50 [1]: 6 nM
IC50 [2]: 11 nM
IC50 [3]: 11 nM
IC50 [4]: 2 nM
IC50 ([5]; read-out: FGFR1 (FP) IC50): 6 nM
IC50 ([6]; read-out: FGFR2 (FP) IC50): 5 nM

CNC(=O)c1cc(COc2cnc(Nc3cnn(C[C@@H]4COC(C)(C)O4)c3)nc2)c(F)c(OC)c1 [Compound 248]
IC50 [1]: 14 nM
IC50 [2]: 21 nM
IC50 [3]: 6 nM
IC50 [4]: 9 nM
IC50 ([5]; read-out: FGFR1 (FP) IC50): 16 nM
IC50 ([6]; read-out: FGFR2 (FP) IC50): 11 nM

CNC(=O)c1cc(CCc2cnc(Nc3ccc(N4C[C@@H](C)N(C)[C@@H](C)C4)nc3)nc2)c(Cl)c(OC)c1 [Compound 158]
IC50 [1]: 6 nM
IC50 [2]: 29 nM
IC50 [3]: 16 nM
IC50 [4]: 7 nM
IC50 ([5]; read-out: FGFR1 (FP) IC50): 14 nM
IC50 ([6]; read-out: FGFR2 (FP) IC50): 7 nM

CNC(=O)c1cc(CCc2cnc(Nc3ccc(N4C[C@@H](C)N(C)[C@@H](C)C4)cc3)nc2)c(F)c(OC)c1 [Compound 171]
IC50 [1]: 11 nM
IC50 [2]: 43 nM
IC50 [3]: 8 nM
IC50 [4]: 16 nM
IC50 ([5]; read-out: FGFR1 (FP) IC50): 12 nM
IC50 ([6]; read-out: FGFR2 (FP) IC50): 8 nM

CNC(=O)c1cc(COc2cnc(Nc3ccc(=O)n(C4CCCC4)c3)nc2)c(F)c(OC)c1 [Compound 237]
IC50 [1]: 29 nM
IC50 [2]: 134 nM
IC50 [3]: 79 nM
IC50 [4]: 42 nM
IC50 ([5]; read-out: FGFR1 (FP) IC50): 66 nM
IC50 ([6]; read-out: FGFR2 (FP) IC50): 27 nM
